Test results reported in US20240059735A1, “COMPOSITIONS AND METHODS FOR THE PREVENTION AND TREATMENT OF MIT[…]” (Stealth BioTherapeutics Inc., priority 2016, published 2024).
Where a SMILES comes first, the peptide text is derived from it. [ ]: non-standard residue; d: D form. Dmt = Cc1cc(O)cc(C)c1C[C@H](N)C(=O)O

How the values were obtained:
[1] = 0.01-0.25 mg/kg/hr IV, five days
Experimental: Control mitochondrial myopathy subjects (Group 4) received equal volumes of saline solution administered for two hours. All groups were treated for five consecutive days. The demographics of the subjects are disclosed in Table 5.

[2] = system: several mammalian cell types; conditions: cited from earlier work

| Molecule | serious adverse events [1] | vital signs, electrocardiograms, clinical laboratory findings [1] | penetration of the plasma membrane [2] |
| --- | --- | --- | --- |
| Cc1cc(O)cc(C)c1C[C@H](NC(=O)[C@H](N)CCCNC(=N)N)C(=O)N[C@@H](CCCCN)C(=O)N[C@@H](Cc1ccccc1)C(N)=O [D-Arg-2′,6′-Dmt-Lys-Phe-NH2] (H-[dR][Dmt]KF-NH2) | None of the test subjects exhibited any serious adverse events | no significant trends changes | – |
| 2′,6′-Dmt-D-Arg-Phe-Lys-NH2 | – | – | readily penetrates the plasma membrane of several mammalian cell types in an energy-independent manner |
